# Reference: the supplement of paper PMC8967900
# Test system: KASUMI-9
# Test: selective drug sensitivity score (sDSS, relative to normal bone marrow) (sDSS (score)); higher = more potent and effective on the cell line relative to normal bone marrow cells
# Conditions: 72 h
# 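Note: ALL cell lines in 384-well plates, five doses spanning 10,000-fold, each plate scaled between vehicle and 100 µmol/L benzalkonium chloride controls, sDSS an adapted area-under-curve metric.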
row,SMILES,selective drug sensitivity score
1,NCCNc1ccc(NCCN)c2c1C(=O)c1ccncc1C2=O [Pixantrone] (top concentration 10000 nM),-0.36
2,c1cc(CN2CCCNCCNCCCNCC2)ccc1CN1CCCNCCNCCCNCC1 [Plerixafor] (top concentration 10000 nM),0
3,O=C(c1ccc(OCCN2CCCCC2)cc1)c1c(-c2ccc(O)cc2)sc2cc(O)ccc12 [Raloxifene] (top concentration 10000 nM),-0.68
4,CN(C)C(=O)c1cc2cnc(Nc3ccc(N4CCNCC4)cn3)nc2n1C1CCCC1 [Ribociclib] (top concentration 10000 nM),6.38
5,CN1CCN(CCOc2cc(OC3CCOCC3)c3c(Nc4c(Cl)ccc5c4OCO5)ncnc3c2)CC1 [Saracatinib] (top concentration 10000 nM),2.98
6,C=CC(=O)Nc1cccc(Nc2nc(Nc3ccc(OCCOC)cc3)ncc2F)c1 [Spebrutinib] (top concentration 1000 nM),4.84
7,C[C@@H]1CN(Cc2ccc(F)cc2)[C@@H](C)CN1C(=O)c1cc2c(C(=O)C(=O)N(C)C)cn(C)c2cc1Cl [Talmapimod] (top concentration 10000 nM),0
8,C[C@@H](C(=O)O)c1ccc(-c2ccccc2)c(F)c1 [Tarenflurbil] (top concentration 10000 nM),6.84
9,CNC(=O)c1cc(COc2nnc(Nc3ccc(Cl)cc3)c3ccoc23)ccn1 [Telatinib] (top concentration 10000 nM),1
10,O=c1sn(-c2cccc3ccccc23)c(=O)n1Cc1ccccc1 [Tideglusib] (top concentration 3000 nM),-0.3
11,COc1cc2nccc(Oc3ccc(NC(=O)Nc4cc(C)on4)c(Cl)c3)c2cc1OC [Tivozanib] (top concentration 10000 nM),2.46
12,Cc1cc(Nc2cc(N3CCN(C)CC3)nc(Sc3ccc(NC(=O)C4CC4)cc3)n2)n[nH]1 [Tozasertib] (top concentration 10000 nM),18.4
13,CC1=C(/C=C/C(C)=C/C=C/C(C)=C/C(=O)O)C(C)(C)CCC1 [Tretinoin] (top concentration 10000 nM),3.4
14,COC(=O)c1ccc2c(c1)[nH]c1ncnc(NCCCN3CCCCC3)c12 [UM729] (top concentration 10000 nM),2.44
15,COc1cc2c(NC3CCN(C(C)C)CC3)nc(N3CCC(F)(F)CC3)nc2cc1OCCCN1CCCC1 [UNC0642] (top concentration 10000 nM),0.76
16,O=C(c1ccc(C(=O)N2CCC(N3CCCC3)CC2)c(Nc2ccccc2)c1)N1CCC(N2CCCC2)CC1 [UNC1215] (top concentration 10000 nM),0
17,CCCC(CCC)C(=O)O [Valproic_acid] (top concentration 1000000 nM),0
18,Clc1ccc(Nc2nnc(Cc3ccncc3)c3ccccc23)cc1 [Vatalanib] (top concentration 10000 nM),0
19,CCCS(=O)(=O)Nc1ccc(F)c(C(=O)c2c[nH]c3ncc(-c4ccc(Cl)cc4)cc23)c1F [Vemurafenib] (top concentration 10000 nM),1.66

# Test system: MHH-CALL-4
# Test: as above
# Conditions: 72 h
row,SMILES,selective drug sensitivity score
1,NCCNc1ccc(NCCN)c2c1C(=O)c1ccncc1C2=O [Pixantrone] (top concentration 10000 nM),-2.56
2,c1cc(CN2CCCNCCNCCCNCC2)ccc1CN1CCCNCCNCCCNCC1 [Plerixafor] (top concentration 10000 nM),0
3,O=C(c1ccc(OCCN2CCCCC2)cc1)c1c(-c2ccc(O)cc2)sc2cc(O)ccc12 [Raloxifene] (top concentration 10000 nM),-2.28
4,CN(C)C(=O)c1cc2cnc(Nc3ccc(N4CCNCC4)cn3)nc2n1C1CCCC1 [Ribociclib] (top concentration 10000 nM),-1.42
5,CN1CCN(CCOc2cc(OC3CCOCC3)c3c(Nc4c(Cl)ccc5c4OCO5)ncnc3c2)CC1 [Saracatinib] (top concentration 10000 nM),-2.02
6,C=CC(=O)Nc1cccc(Nc2nc(Nc3ccc(OCCOC)cc3)ncc2F)c1 [Spebrutinib] (top concentration 1000 nM),3.24
7,C[C@@H]1CN(Cc2ccc(F)cc2)[C@@H](C)CN1C(=O)c1cc2c(C(=O)C(=O)N(C)C)cn(C)c2cc1Cl [Talmapimod] (top concentration 10000 nM),0
8,C[C@@H](C(=O)O)c1ccc(-c2ccccc2)c(F)c1 [Tarenflurbil] (top concentration 10000 nM),-0.16
9,CNC(=O)c1cc(COc2nnc(Nc3ccc(Cl)cc3)c3ccoc23)ccn1 [Telatinib] (top concentration 10000 nM),0
10,O=c1sn(-c2cccc3ccccc23)c(=O)n1Cc1ccccc1 [Tideglusib] (top concentration 3000 nM),0.9
11,COc1cc2nccc(Oc3ccc(NC(=O)Nc4cc(C)on4)c(Cl)c3)c2cc1OC [Tivozanib] (top concentration 10000 nM),-2.44
12,Cc1cc(Nc2cc(N3CCN(C)CC3)nc(Sc3ccc(NC(=O)C4CC4)cc3)n2)n[nH]1 [Tozasertib] (top concentration 10000 nM),4.66
13,CC1=C(/C=C/C(C)=C/C=C/C(C)=C/C(=O)O)C(C)(C)CCC1 [Tretinoin] (top concentration 10000 nM),-2.4
14,COC(=O)c1ccc2c(c1)[nH]c1ncnc(NCCCN3CCCCC3)c12 [UM729] (top concentration 10000 nM),0.44
15,COc1cc2c(NC3CCN(C(C)C)CC3)nc(N3CCC(F)(F)CC3)nc2cc1OCCCN1CCCC1 [UNC0642] (top concentration 10000 nM),1.46
16,O=C(c1ccc(C(=O)N2CCC(N3CCCC3)CC2)c(Nc2ccccc2)c1)N1CCC(N2CCCC2)CC1 [UNC1215] (top concentration 10000 nM),0
17,CCCC(CCC)C(=O)O [Valproic_acid] (top concentration 1000000 nM),0
18,Clc1ccc(Nc2nnc(Cc3ccncc3)c3ccccc23)cc1 [Vatalanib] (top concentration 10000 nM),0.1
19,CCCS(=O)(=O)Nc1ccc(F)c(C(=O)c2c[nH]c3ncc(-c4ccc(Cl)cc4)cc23)c1F [Vemurafenib] (top concentration 10000 nM),-0.94

# Test system: NALM-6
# Test: as above
# Conditions: 72 h
row,SMILES,selective drug sensitivity score
1,NCCNc1ccc(NCCN)c2c1C(=O)c1ccncc1C2=O [Pixantrone] (top concentration 10000 nM),-2.76
2,c1cc(CN2CCCNCCNCCCNCC2)ccc1CN1CCCNCCNCCCNCC1 [Plerixafor] (top concentration 10000 nM),0.3
3,O=C(c1ccc(OCCN2CCCCC2)cc1)c1c(-c2ccc(O)cc2)sc2cc(O)ccc12 [Raloxifene] (top concentration 10000 nM),-0.88
4,CN(C)C(=O)c1cc2cnc(Nc3ccc(N4CCNCC4)cn3)nc2n1C1CCCC1 [Ribociclib] (top concentration 10000 nM),1.18
5,CN1CCN(CCOc2cc(OC3CCOCC3)c3c(Nc4c(Cl)ccc5c4OCO5)ncnc3c2)CC1 [Saracatinib] (top concentration 10000 nM),-1.22
6,C=CC(=O)Nc1cccc(Nc2nc(Nc3ccc(OCCOC)cc3)ncc2F)c1 [Spebrutinib] (top concentration 1000 nM),2.04
7,C[C@@H]1CN(Cc2ccc(F)cc2)[C@@H](C)CN1C(=O)c1cc2c(C(=O)C(=O)N(C)C)cn(C)c2cc1Cl [Talmapimod] (top concentration 10000 nM),0
8,C[C@@H](C(=O)O)c1ccc(-c2ccccc2)c(F)c1 [Tarenflurbil] (top concentration 10000 nM),3.44
9,CNC(=O)c1cc(COc2nnc(Nc3ccc(Cl)cc3)c3ccoc23)ccn1 [Telatinib] (top concentration 10000 nM),0
10,O=c1sn(-c2cccc3ccccc23)c(=O)n1Cc1ccccc1 [Tideglusib] (top concentration 3000 nM),-0.3
11,COc1cc2nccc(Oc3ccc(NC(=O)Nc4cc(C)on4)c(Cl)c3)c2cc1OC [Tivozanib] (top concentration 10000 nM),2.36
12,Cc1cc(Nc2cc(N3CCN(C)CC3)nc(Sc3ccc(NC(=O)C4CC4)cc3)n2)n[nH]1 [Tozasertib] (top concentration 10000 nM),16.2
13,CC1=C(/C=C/C(C)=C/C=C/C(C)=C/C(=O)O)C(C)(C)CCC1 [Tretinoin] (top concentration 10000 nM),-2.4
14,COC(=O)c1ccc2c(c1)[nH]c1ncnc(NCCCN3CCCCC3)c12 [UM729] (top concentration 10000 nM),0.34
15,COc1cc2c(NC3CCN(C(C)C)CC3)nc(N3CCC(F)(F)CC3)nc2cc1OCCCN1CCCC1 [UNC0642] (top concentration 10000 nM),-2.24
16,O=C(c1ccc(C(=O)N2CCC(N3CCCC3)CC2)c(Nc2ccccc2)c1)N1CCC(N2CCCC2)CC1 [UNC1215] (top concentration 10000 nM),0
17,CCCC(CCC)C(=O)O [Valproic_acid] (top concentration 1000000 nM),0
18,Clc1ccc(Nc2nnc(Cc3ccncc3)c3ccccc23)cc1 [Vatalanib] (top concentration 10000 nM),0
19,CCCS(=O)(=O)Nc1ccc(F)c(C(=O)c2c[nH]c3ncc(-c4ccc(Cl)cc4)cc23)c1F [Vemurafenib] (top concentration 10000 nM),-1.14

# Test system: COG-LL-355h
# Test: as above
# Conditions: 72 h
row,SMILES,selective drug sensitivity score
1,NCCNc1ccc(NCCN)c2c1C(=O)c1ccncc1C2=O [Pixantrone] (top concentration 10000 nM),0.34
2,c1cc(CN2CCCNCCNCCCNCC2)ccc1CN1CCCNCCNCCCNCC1 [Plerixafor] (top concentration 10000 nM),0
3,O=C(c1ccc(OCCN2CCCCC2)cc1)c1c(-c2ccc(O)cc2)sc2cc(O)ccc12 [Raloxifene] (top concentration 10000 nM),3.92
4,CN(C)C(=O)c1cc2cnc(Nc3ccc(N4CCNCC4)cn3)nc2n1C1CCCC1 [Ribociclib] (top concentration 10000 nM),0.18
5,CN1CCN(CCOc2cc(OC3CCOCC3)c3c(Nc4c(Cl)ccc5c4OCO5)ncnc3c2)CC1 [Saracatinib] (top concentration 10000 nM),0.48
6,C=CC(=O)Nc1cccc(Nc2nc(Nc3ccc(OCCOC)cc3)ncc2F)c1 [Spebrutinib] (top concentration 1000 nM),0.64
7,C[C@@H]1CN(Cc2ccc(F)cc2)[C@@H](C)CN1C(=O)c1cc2c(C(=O)C(=O)N(C)C)cn(C)c2cc1Cl [Talmapimod] (top concentration 10000 nM),0
8,C[C@@H](C(=O)O)c1ccc(-c2ccccc2)c(F)c1 [Tarenflurbil] (top concentration 10000 nM),-0.16
9,CNC(=O)c1cc(COc2nnc(Nc3ccc(Cl)cc3)c3ccoc23)ccn1 [Telatinib] (top concentration 10000 nM),0
10,O=c1sn(-c2cccc3ccccc23)c(=O)n1Cc1ccccc1 [Tideglusib] (top concentration 3000 nM),-0.3
11,COc1cc2nccc(Oc3ccc(NC(=O)Nc4cc(C)on4)c(Cl)c3)c2cc1OC [Tivozanib] (top concentration 10000 nM),-1.04
12,Cc1cc(Nc2cc(N3CCN(C)CC3)nc(Sc3ccc(NC(=O)C4CC4)cc3)n2)n[nH]1 [Tozasertib] (top concentration 10000 nM),2.96
13,CC1=C(/C=C/C(C)=C/C=C/C(C)=C/C(=O)O)C(C)(C)CCC1 [Tretinoin] (top concentration 10000 nM),-1
14,COC(=O)c1ccc2c(c1)[nH]c1ncnc(NCCCN3CCCCC3)c12 [UM729] (top concentration 10000 nM),1.44
15,COc1cc2c(NC3CCN(C(C)C)CC3)nc(N3CCC(F)(F)CC3)nc2cc1OCCCN1CCCC1 [UNC0642] (top concentration 10000 nM),4.36
16,O=C(c1ccc(C(=O)N2CCC(N3CCCC3)CC2)c(Nc2ccccc2)c1)N1CCC(N2CCCC2)CC1 [UNC1215] (top concentration 10000 nM),0
17,CCCC(CCC)C(=O)O [Valproic_acid] (top concentration 1000000 nM),0
18,Clc1ccc(Nc2nnc(Cc3ccncc3)c3ccccc23)cc1 [Vatalanib] (top concentration 10000 nM),0
19,CCCS(=O)(=O)Nc1ccc(F)c(C(=O)c2c[nH]c3ncc(-c4ccc(Cl)cc4)cc23)c1F [Vemurafenib] (top concentration 10000 nM),0.86

# Test system: MHH-CALL-2
# Test: as above
# Conditions: 72 h
row,SMILES,selective drug sensitivity score
1,NCCNc1ccc(NCCN)c2c1C(=O)c1ccncc1C2=O [Pixantrone] (top concentration 10000 nM),1.34
2,c1cc(CN2CCCNCCNCCCNCC2)ccc1CN1CCCNCCNCCCNCC1 [Plerixafor] (top concentration 10000 nM),0
3,O=C(c1ccc(OCCN2CCCCC2)cc1)c1c(-c2ccc(O)cc2)sc2cc(O)ccc12 [Raloxifene] (top concentration 10000 nM),0.22
4,CN(C)C(=O)c1cc2cnc(Nc3ccc(N4CCNCC4)cn3)nc2n1C1CCCC1 [Ribociclib] (top concentration 10000 nM),3.68
5,CN1CCN(CCOc2cc(OC3CCOCC3)c3c(Nc4c(Cl)ccc5c4OCO5)ncnc3c2)CC1 [Saracatinib] (top concentration 10000 nM),-0.52
6,C=CC(=O)Nc1cccc(Nc2nc(Nc3ccc(OCCOC)cc3)ncc2F)c1 [Spebrutinib] (top concentration 1000 nM),5.84
7,C[C@@H]1CN(Cc2ccc(F)cc2)[C@@H](C)CN1C(=O)c1cc2c(C(=O)C(=O)N(C)C)cn(C)c2cc1Cl [Talmapimod] (top concentration 10000 nM),0
8,C[C@@H](C(=O)O)c1ccc(-c2ccccc2)c(F)c1 [Tarenflurbil] (top concentration 10000 nM),-0.16
9,CNC(=O)c1cc(COc2nnc(Nc3ccc(Cl)cc3)c3ccoc23)ccn1 [Telatinib] (top concentration 10000 nM),0.4
10,O=c1sn(-c2cccc3ccccc23)c(=O)n1Cc1ccccc1 [Tideglusib] (top concentration 3000 nM),0.5
11,COc1cc2nccc(Oc3ccc(NC(=O)Nc4cc(C)on4)c(Cl)c3)c2cc1OC [Tivozanib] (top concentration 10000 nM),-0.34
12,Cc1cc(Nc2cc(N3CCN(C)CC3)nc(Sc3ccc(NC(=O)C4CC4)cc3)n2)n[nH]1 [Tozasertib] (top concentration 10000 nM),11
13,CC1=C(/C=C/C(C)=C/C=C/C(C)=C/C(=O)O)C(C)(C)CCC1 [Tretinoin] (top concentration 10000 nM),-1.7
14,COC(=O)c1ccc2c(c1)[nH]c1ncnc(NCCCN3CCCCC3)c12 [UM729] (top concentration 10000 nM),-0.06
15,COc1cc2c(NC3CCN(C(C)C)CC3)nc(N3CCC(F)(F)CC3)nc2cc1OCCCN1CCCC1 [UNC0642] (top concentration 10000 nM),0.96
16,O=C(c1ccc(C(=O)N2CCC(N3CCCC3)CC2)c(Nc2ccccc2)c1)N1CCC(N2CCCC2)CC1 [UNC1215] (top concentration 10000 nM),0
17,CCCC(CCC)C(=O)O [Valproic_acid] (top concentration 1000000 nM),0
18,Clc1ccc(Nc2nnc(Cc3ccncc3)c3ccccc23)cc1 [Vatalanib] (top concentration 10000 nM),0.1
19,CCCS(=O)(=O)Nc1ccc(F)c(C(=O)c2c[nH]c3ncc(-c4ccc(Cl)cc4)cc23)c1F [Vemurafenib] (top concentration 10000 nM),3.56
